Source: patent publication US10988465B2, “CXCR4 inhibitors and uses thereof” (X4 Pharmaceuticals, Inc., priority 2016, dated 2021)

Columns and labels:
[1] = target: T1, CXCR-4 transfected U87 cell line (U87.CXCR4) (Homo sapiens, UniProt P61073); experiment: Intracellular CXCL-12-induced calcium mobilization assay (FLIPR); assay type: cell-based; conditions: U87.CXCR4 cells; CXCL-12 25-50 ng/mL; compound added 15 min before; read-out: IC50 CXCL-12 Ca^2+ flux U87.CXCR4+
T1 construct: expressed in transfected cells; host or cells: U87 (U87.CXCR4)
Procedure, shortened: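 CXCL-12 (25-50 ng/mL) was the stimulus, and the intracellular calcium rise was tracked kinetically by FLIPR at 37 °C. Cells were U87.CXCR4 transfectants pre-loaded 45 min at 37 °C with 4 μM (final) Fluo-2 AM in HEPES-buffered HBSS with 0.2% BSA, pH 7.4.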

[2] = target: T2, Jurkat cells expressing CXCR4 (Homo sapiens, UniProt P61073); experiment: Chemokine (CXCL12-AF647) binding inhibition assay; conditions: CXCL12-AF647 25 ng/mL, read-out: IC50 CXCL-12 binding Jurkat
T2 construct: endogenous in cells; host or cells: Jurkat
Procedure, shortened: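 Cells in HBSS, 20 mM HEPES, 0.2% BSA, pH 7.4, preincubated 15 min at room temperature with compound, then 25 ng/mL CXCL12-AF647 for 30 min. After washing and paraformaldehyde fixation, bound ligand read by flow cytometry; percent inhibition calculated from MFI relative to unlabeled and ligand-only controls.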

in vitro = conditions: human, Caco-2, pH 7.4
Procedure, shortened: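 Bidirectional permeability across Caco-2 monolayers in HBSS (pH 7.4) at a test concentration of 10 μM, incubated 0 and 90 min at 37° C (n=2). Monolayer integrity was assessed by TEER and Lucifer yellow. Papp was derived from LC-MS/MS-measured concentrations.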

T2 sequence (P61073 whole entry): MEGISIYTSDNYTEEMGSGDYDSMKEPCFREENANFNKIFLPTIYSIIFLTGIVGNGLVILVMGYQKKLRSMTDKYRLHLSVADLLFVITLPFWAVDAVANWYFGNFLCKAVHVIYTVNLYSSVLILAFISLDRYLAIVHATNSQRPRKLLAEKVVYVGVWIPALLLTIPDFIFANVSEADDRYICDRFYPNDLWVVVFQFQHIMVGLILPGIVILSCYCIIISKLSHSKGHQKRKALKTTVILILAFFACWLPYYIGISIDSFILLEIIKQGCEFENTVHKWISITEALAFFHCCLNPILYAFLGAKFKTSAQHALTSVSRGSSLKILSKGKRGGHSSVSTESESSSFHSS
T1 sequence (P61073 whole entry): as above

SMILES | IC50 [1] [nM] | IC50 [2] [nM] | Papp A→B at 90 min, 10 μM (in vitro) [nm/s] | Papp B→A at 90 min, 10 μM (in vitro) [nm/s] | efflux ratio at 90 min, 10 μM (in vitro)
CN1CC2CCC(C1)N2c1cccc2nc([C@H]3CCC[C@@H](c4ncccc4Cl)N3)[nH]c12 [I-121] | 0.01 to 100 | 0.01 to 100 | 100 to 300 | 100 to 300 | 0.1 to 10
Cc1cccnc1[C@@H]1CCC[C@H](c2nc3ccccc3n2CCCCN2CCN(C)CC2)N1C [I-40] | ≥ 1000 | 100 to 1000 | 1 to 100 | 100 to 300 | 0.1 to 10
[2H]C([2H])([2H])N1[C@@H](c2nc3cccc(N4CCN(C)CC4)c3[nH]2)CCC[C@H]1c1ncccc1C [I-112] | 0.01 to 100 | 0.01 to 100 | 100 to 300 | 100 to 300 | –
Cc1cccnc1[C@@H]1CCC[C@H](c2nc3c(Br)ccc(Br)c3n2CC2CCN(C)CC2)N1C [I-47] | 100 to 1000 | 0.01 to 100 | 1 to 100 | 100 to 300 | 0.1 to 10
CN1CCN(c2cccc3nc([C@H]4CCC[C@@H](c5ncccc5OC5CC5)N4C)[nH]c23)CC1 [I-72] | ≥ 1000 | 100 to 1000 | 100 to 300 | 100 to 300 | 0.1 to 10
Cc1ccnc([C@@H]2CCC[C@H](c3nc4cccc(N5CCN(C)CC5)c4[nH]3)N2C)c1 [I-71] | ≥ 1000 | 100 to 1000 | 100 to 300 | 100 to 300 | 0.1 to 10
Cc1cccnc1[C@@H]1CCC[C@H](c2nccn2CCCN(C)C)N1C [I-165, N,N-dimethyl-3-(2-((2R,6S)-1-methyl-6-(3-methylpyridin-2-yl)piperidin-2-yl)-1H-imidazol-1-yl)propan-1-amine] | 100 to 1000 | 0.01 to 100 | 1 to 100 | 100 to 300 | 0.1 to 10
Cc1cccnc1[C@@H]1CCC[C@H](c2nc3cccc(N4CCNCC4)c3[nH]2)N1C [I-136] | 0.01 to 100 | 0.01 to 100 | 1 to 100 | 100 to 300 | 10 to 30
CC(C)N1CCN(c2cccc3nc([C@H]4CCC[C@@H](c5ncccc5Cl)N4)[nH]c23)CC1 [I-148] | 0.01 to 100 | 0.01 to 100 | 100 to 300 | 100 to 300 | 0.1 to 10
Cc1cccnc1[C@@H]1CCC[C@H](c2nc3cccc(N4CCN5CCCC5C4)c3[nH]2)N1 (stereo partly shown) [I-126] | 0.01 to 100 | 0.01 to 100 | 1 to 100 | 100 to 300 | 0.1 to 10
Cc1cccnc1[C@@H]1CCC[C@H](c2nc3cccc(C4CCN(C)CC4)c3[nH]2)N1 [I-151] | 0.01 to 100 | 0.01 to 100 | 1 to 100 | 100 to 300 | 0.1 to 10
Cc1cccnc1[C@@H]1CCC[C@H](c2nccn2C2CCN(C)CC2)N1C [I-168] | 0.01 to 100 | 0.01 to 100 | 1 to 100 | 100 to 300 | 0.1 to 10
CN1CCN(c2cccc3nc([C@H]4CCC[C@@H](c5ccccn5)N4C)[nH]c23)CC1 [I-29, 2-((2R,6S)-1-methyl-6-(pyridin-2-yl)piperidin-2-yl)-7-(4-methylpiperazin-1-yl)-1H-benzo[d]imidazole] | 100 to 1000 | 0.01 to 100 | 100 to 300 | 100 to 300 | 0.1 to 10
Cc1cccnc1[C@@H]1CCC[C@H](c2nccn2CCc2ccccn2)N1 [I-177] | ≥ 1000 | ≥ 1000 | 100 to 300 | 100 to 300 | 0.1 to 10
CN1CCN(c2cccc3nc([C@H]4CCC[C@@H](c5nccc6c5OCCO6)N4C)[nH]c23)CC1 [I-65] | 100 to 1000 | 100 to 1000 | 100 to 300 | 100 to 300 | 0.1 to 10
Cc1cccnc1[C@@H]1CCC[C@H](c2nc3cccc(N4CCNC5(CC5)C4)c3[nH]2)N1C [I-129] | 100 to 1000 | 0.01 to 100 | 100 to 300 | 100 to 300 | 0.1 to 10
CN1CCN(c2cccc3nc([C@H]4CCC[C@@H](c5ncccc5C#N)N4C)[nH]c23)CC1 [I-10, 2-((2S,6R)-1-methyl-6-(7-(4-methylpiperazin-1-yl)-1H-benzo[d]imidazol-2-yl)piperidin-2-yl)nicotinonitrile] | ≥ 1000 | 100 to 1000 | 100 to 300 | 100 to 300 | 0.1 to 10

SMILES | IC50 [1] [nM] | IC50 [2] [nM] | Papp A→B at 90 min, 10 μM (in vitro) [nm/s] | Papp B→A at 90 min, 10 μM (in vitro) [nm/s] | efflux ratio at 90 min, 10 μM (in vitro)
Cc1cccnc1[C@@H]1CCC[C@H](c2nc3cccc(N4CCNC(C)(C)C4)c3[nH]2)N1C [I-52] | 0.01 to 100 | 0.01 to 100 | 1 to 100 | 100 to 300 | 10 to 30
Cc1cccnc1[C@@H]1CCC[C@H](c2nc3cccc(C4CCN(C)CC4)c3[nH]2)N1C [I-34] | 0.01 to 100 | 0.01 to 100 | 1 to 100 | 100 to 300 | 0.1 to 10
[2H]C([2H])([2H])N1CCN(c2cccc3nc([C@H]4CCC[C@@H](c5ncccc5C)N4C)[nH]c23)CC1 [I-111] | 0.01 to 100 | 0.01 to 100 | 100 to 300 | 100 to 300 | –
Cc1cccnc1[C@@H]1CCC[C@H](c2nc3cccc(N4CCN(c5ccccn5)CC4)c3[nH]2)N1 [I-162] | ≥ 1000 | 100 to 1000 | 100 to 300 | 100 to 300 | 0.1 to 10
CN1CCN(c2cccc3nc([C@H]4CCC[C@@H](c5nccc6occc56)N4C)[nH]c23)CC1 [I-92] | 100 to 1000 | 0.01 to 100 | 100 to 300 | 100 to 300 | 0.1 to 10
Cc1cccnc1[C@@H]1CCC[C@H](c2nc3ccccc3n2CCCCN2CCOCC2)N1C [I-39] | ≥ 1000 | 100 to 1000 | 100 to 300 | 100 to 300 | 0.1 to 10
Cc1cccnc1[C@@H]1CCC[C@H](c2nc3ccccc3n2CCCN2CCC(F)(F)CC2)N1C [I-30, 1-(3-(4,4-difluoropiperidin-1-yl)propyl)-2-((2R,6S)-1-methyl-6-(3-methylpyridin-2-yl)piperidin-2-yl)-1H-benzo[d]imidazole] | 0.01 to 100 | 0.01 to 100 | 1 to 100 | 1 to 100 | 0.1 to 10
CN(C)C1CCN(c2cccc3nc([C@H]4CCC[C@@H](c5ncccc5Cl)N4)[nH]c23)CC1 [I-153] | 0.01 to 100 | 0.01 to 100 | 1 to 100 | 100 to 300 | 0.1 to 10
Cc1cccnc1[C@@H]1CCC[C@H](c2nc3c(N4CCN(C)CC4)cccc3n2C)N1 [I-141] | ≥ 1000 | ≥ 1000 | 100 to 300 | 100 to 300 | 0.1 to 10
CO[C@@H]1C[C@H](c2nc3cccc(N4CCN(C)CC4)c3[nH]2)N(C)[C@H](c2ncccc2C)C1 [I-102] | 100 to 1000 | 0.01 to 100 | 1 to 100 | 100 to 300 | 0.1 to 10
Cc1cccnc1[C@@H]1CCC[C@H](c2nccn2CCn2cccn2)N1 [I-176] | ≥ 1000 | ≥ 1000 | 100 to 300 | > 300 | 0.1 to 10
Cc1cccnc1[C@@H]1CCC[C@H](c2nc3cccc(N4CCN(C)CC4)c3n2C)N1 [I-123] | 0.01 to 100 | 0.01 to 100 | 1 to 100 | 100 to 300 | 0.1 to 10
Cc1cccnc1[C@@H]1C[C@@H](O)C[C@H](c2nc3cccc(N4CCN(C)CC4)c3[nH]2)N1C [I-101] | 0.01 to 100 | 0.01 to 100 | 1 to 100 | 100 to 300 | > 30
CN1CCN(c2cccc3nc([C@H]4CCC[C@@H](c5ncccc5Cl)N4)[nH]c23)CC12CC2 [I-133] | ≥ 1000 | 0.01 to 100 | 100 to 300 | 100 to 300 | 0.1 to 10
Cc1cccnc1[C@@H]1CCC[C@H](c2nc3ccccc3[nH]2)N1CCCCN [I-1, 4-((2R,6S)-2-(1H-benzo[d]imidazol-2-yl)-6-(3-methylpyridin-2-yl)piperidin-1-yl)butan-1-amine] | 100 to 1000 | 0.01 to 100 | 1 to 100 | 1 to 100 | 10 to 30
CN1[C@@H](c2nc3cccc(N4CCN5CCCC5C4)c3[nH]2)CCC[C@H]1c1ncccc1Cl (stereo partly shown) [I-150] | 0.01 to 100 | 0.01 to 100 | 100 to 300 | 100 to 300 | 0.1 to 10
